Experiment [1] relates to Oseltamivir resistant strains. In words: microbe, parasite or virus in culture. In kind it is cell-based, influenza virus.
The subject of experiment [2] is influenza virus. In kind it is cell-based.
Setting [3] is: Influenza A virus, H3N2, read-out: IC50, inhibition of plaque number.
Where [4] appears, read: unidentified influenza virus, pH 1, read-out: IC50, inhibition of plaque number.
[5] abbreviates: unidentified influenza virus, read-out: IC50, inhibition of plaque number.

Structures are written as SMILES. pEC50, pIC50: −log10 of the molar value. Where two headings read alike, the source gives them in different places. Marks after values point to notes of the source that are not given here. A value given as a limit tells only on which side of the number the result lay.

The IC50 is the concentration that gives 50% inhibition. For orientation: pEC50 means the negative decadic logarithm of the EC50, by convention in mol/L. By pIC50 is commonly meant the IC50 on a negative log10 scale, so that one unit is a factor of ten.

In the case of `CC(=O)N[C@H]1[C@H]([C@H](OC(=O)NCCCCCCCCCNC(=O)c2cc(C(=O)NCCCCCCCCCNC(=O)O[C@@H]([C@@H]3OC(C(=O)O)=C[C@H](NC(=N)N)[C@H]3NC(C)=O)[C@H](O)CO)c(C(=O)N[C@H](CC(=O)NCS(=O)(=O)O)C(=O)NCS(=O)(=O)O)cc2C(=O)N[C@H](CC(=O)NCS(=O)(=O)O)C(=O)NCS(=O)(=O)O)[C@H](O)CO)OC(C(=O)O)=C[C@@H]1NC(=N)N` [MD185, PK2PYR(Zn)2[(D-Asp)(NHCH2SO3)2]2], the IC50 is 1 ng/mL in experiment [1] (setting [3]), 1 to 10 ng/mL in experiment [1] (setting [4]) and 1 to 10 ng/mL in experiment [1] (setting [5]). In addition, in experiment [1] (pH 1), the “IC50, inhibition of plaque number” value is 1-100^b ng/ml. The EC50 in experiment [2] was 0.18/0.097 ng/ml. In experiment [2] (read-out: EC50), the negative-log EC50 (pEC50) was 10.01.

On to `CCOC(=O)C1=C[C@@H](OC(CC)CC)[C@H](NC(C)=O)[C@@H](N)C1` [Oseltamivir, reference compound], for which the pIC50 is no more than 6.00 in experiment [1] (setting [3]); no more than 5.00 in experiment [1] (pH 1, read-out: IC50, inhibition of plaque number); no more than 5.00 in experiment [1] (read-out: IC50, inhibition of plaque number); 7.00 in experiment [1] (setting [4]); 6.00 in experiment [1] (setting [5]).

Source of the values: patent US11007274B2, “Compounds for medicinal applications” (Ausvir Therapeutics Pty LTD, priority 2015, dated 2021).
